Assay results reported in a melting point compilation (Tetko et al.; mined from patent text by program, amines drawn as free bases though some values may be those of a salt).

Structure (SMILES)	melting point [°C]
O=C(c1cc(Br)cc(Br)c1)c1cc(Br)cc(Br)c1	208 to 209
O=C(O)c1ccc2c(c1)C(=O)C1(CC1)O2	215 to 228
COc1cc(OC)c2c(=O)[nH]c(-c3ccc(OCCO)c(OC)c3)nc2c1	246 to 248
O=C(O)C1=Cc2c(F)ccc(Br)c2OC1C(F)(F)F (stereo not given)	222 to 223
CCNC(=O)C(C)(C)N=NC(C)(C)C(=O)NCC	98
N#Cc1ccc(-c2ccc(O)c(C(F)(F)F)c2)cc1	201 to 203
CS(=O)(=O)Nc1cc(NC(=O)CC(=O)C(F)(F)F)c(F)cc1C#N	186 to 191
CC1(C(O)=Nc2cc(Cl)cc(Cl)c2)CCC1C(=O)O (stereo not given)	110 to 111
CCCCCCCCOc1cnc(-c2ccc(C#CCCCC(C)OC(C)=O)cc2)nc1 (stereo not given)	58 to 59
CC1(C)CC2(CC(C)(C)N1O)NC(=O)N(CC1CO1)C2=O (stereo not given)	154
Cc1ccccc1Cc1nc[nH]c1C	138 to 140
CCCCCCCCOc1ccc(-c2ccc(OC(F)F)cc2)cc1	104
CN1CCN(C(=O)c2cc3ccnc(Cl)c3[nH]2)CC1	230 to 232
O=c1[nH]c2ccccc2n1CCN1CCNCC1	123
O=C(O)c1cc(Br)ccc1OCC(F)(F)F	126 to 128
CCOC(=O)c1cc(O[C@@H]2c3c(C)ccc(C)c3C[C@H]2O)c2nc(C)n(C)c2c1 (relative stereo)	184
C=Cn1cc(C(=O)OCC)c(=O)c2cc(F)c(N3CCNCC3)cc21	208 to 210
c1cc(-c2n[nH]c3c2Cc2ccc(CN4CCSCC4)cc2-3)cs1	193 to 195
CCCCCCCCCCCCCCC(=O)c1ccc2cc(O)c(O)cc2c1	133 to 134
N#CCC(=O)NCCCNC(=O)CC#N	146
CCCCC(=O)c1c(C(C)(C)C)cc(C=[N+]([O-])C(C)(C)C)cc1C(C)(C)C	196 to 205
CCOC(=O)c1cn2c3c(c(F)c(F)cc3c1=O)OCC2CI (stereo not given)	214 to 217
CC12CCC(=O)C=C1CCC1C2CCC2(C)C1CC(O)C2NCC(=O)C(F)(F)F (stereo not given)	217 to 220
CCCCCCCCCCCCCCCCCCOc1cc(OCCCCCCOc2ccc(OCc3ccccc3)cc2)cc(C(=O)OCc2ccccc2)c1	60 to 62
C=CCNc1nc(NCCCCCCC)c2scc(C)c2n1	56 to 57
CCCC(=O)C1CCC2C3CCC4CC(O)CCC4(C)C3C(=O)CC12C (stereo not given)	112 to 113

Structure (SMILES)	melting point [°C]
COC(=O)c1cc(OC)c(CNC(C)=O)c(OC)c1	184
CC1(C)CCCC(N2CCN(C3CCC(C(C)(C)C)CC3)CC2)C1 (stereo not given)	90 to 92
CCc1noc(-c2cn(-c3nccnn3)cn2)n1	181 to 182
CCN1CCC(c2n[nH]c3cc(F)ccc23)CC1	175 to 178
COC1=C(OC)C(=O)C(CCCCCCCCCCOC(C)=O)=C(C)C1=O	38
COc1cc2nc(OC)n3cnnc3c2cc1OC	245 to 250
O=C(O)C1CCc2cccc3c(=O)[nH]c(=O)n1c23 (stereo not given)	> 300
CCC(O)(CCCCO)C(=O)Nc1ccnc(Br)c1 (stereo not given)	103
COc1ccc2c(c1)S(=O)(=O)NC(C)N2 (stereo not given)	208 to 218
Nc1cccc2c1COC2	85 to 89
CCOC(=O)C(=CNc1nncs1)C(=O)c1cc(F)c(Cl)nc1Cl	137 to 140
CS(=O)(=O)c1ccc(Cl)c2[nH]ccc12	160 to 162
COCCc1sc(C(C)(O)c2nc(C)c(CCOC)s2)nc1C	50 to 51
COc1cc(Nc2c(C#N)cnc3cc4cc(OCCN5CCOCC5)c(OC)cc4cc23)c(Cl)cc1C	220 to 222
COc1ccc(C(F)(F)C(F)(F)F)cc1-c1csc(N)n1	125
CCOC(=O)Cc1cc(C)c(C(=O)c2ccc([N+](=O)[O-])cc2)n1C	148 to 149
COc1ccc(-c2c(/C=C\C(=O)O)cnn2C)cc1	205 to 206
CC1=NN=C(C=Cc2ccc(C(F)(F)F)cc2)c2cc3c(cc2C1)OCO3	188 to 191
CCCCc1nc(CC(NC(C)=O)(C(=O)OCC)C(=O)OCC)c[nH]1	80 to 92
CCOC(=O)c1cc2c(C)ccc(N(CC)S(=O)(=O)c3cccs3)c2[nH]1	148 to 149
CC1CCc2c(Cl)ccc3c(=O)c(C(=O)O)cn1c23 (stereo not given)	290 to 291
CCCNC(=S)NS(=O)(=O)N1CCC(CCNC(=O)c2cc(Cl)ccc2OC)CC1	119 to 121
Cc1cnn(-c2ccc(Cl)cc2Cl)c(=O)c1Br	108
O=C(Nc1ccccc1O)c1nnn[nH]1	220 to 223
O=C(CCCN1CCCC(c2cccc(O)c2)C1)c1ccc(F)cc1 (stereo not given)	77 to 78
CNC(=O)[C@H](Cc1ccc(OC(C)C)cc1)NC(=O)[C@@H](N)CC(C)C	148 to 160

Continued, values first:

melting point [°C]	Structure (SMILES)
96 to 102	Nc1ccc(CC(NC(=O)CCCCCCCCCCNC(=O)C(c2ccccc2)c2ccccc2)c2ccccc2)cc1 (stereo not given)
286 to 287	COc1ccc(C(=O)NCc2ccc(C(=O)O)cc2)cc1C12CC3CC(CC(C3)C1)C2
222	CCn1nc(C(C)C)c2c1C(=NC#N)NCC(c1ccccc1)=N2
167 to 169	COc1cc2c(c3c1OC(C)(C)C3)C(c1cccc(-c3ccc4ccccc4n3)c1)=NC(C)(C)C2
177 to 179	CC(Oc1ncn(-c2cccc(F)c2)n1)C(=O)O (stereo not given)
95 to 97	O=C1c2c(-c3ccccc3F)noc2CCC1CCCN1CCN(C(c2ccc(F)cc2)c2ccc(F)cc2)CC1 (stereo not given)
90	O=C(O)Cc1ccc(OCCNC(=O)C2Cc3ccccc3N2S(=O)(=O)c2ccc(-c3ccc(F)cc3Cl)cc2)cc1 (stereo not given)
225 to 227	NC(=O)c1sc2nccc(N3CCN(C/C=C/c4ccccc4)CC3)c2c1N
206 to 207	O=C1NCCN1CCNc1cc(-c2ccncc2)c(-c2ccccc2)nn1
165 to 166	COc1cccc(-c2ccnc3c(C#N)cnn23)c1
54 to 56	CC(C)N(CCC(C#N)c1ccc(-c2ccccc2)cc1)C(C)C (stereo not given)
175 to 177	CCCc1c(C(=O)NCc2ccc3cc(OCC(=O)O)ccc3c2)cnn1-c1ccccc1
116 to 119	COc1ccc(NC2=NN(c3cccnc3)CC2)cc1
115 to 117	Fc1ccc(Nc2nc3ccccc3o2)c(F)c1
298 to 300	O=C(Nc1ccc(-c2c[nH]c(=O)cn2)cc1)c1ccc([N+](=O)[O-])cc1
79	CC(=O)SCC(=Cc1ccc(C(F)(F)F)cc1)C(=O)NCCC(=O)OCc1ccccc1
220 to 221	O=C1Nc2ccccc2N(C(=O)CN2CCCCC2CN2CCCCC2)c2ccccc21 (stereo not given)
204 to 207	OCc1nc2n(n1)-c1ccc(Cl)cc1N(c1ccccc1)C2
156 to 157	Cc1cc(N(C)Cc2oc(-c3ccc(C(F)(F)F)cc3)nc2C)ccc1OCC(=O)O
192 to 193	O=C(CNc1ccccc1)Nc1ccccc1C(=O)O
131	CC1(C)CC(CS(=O)(=O)NCC(=O)O)c2cc(OCc3ccccc3)ccc2O1 (stereo not given)
50 to 53	Cn1nc(C(F)(F)F)n(-c2ccc(C#Cc3ccccc3)cc2Cl)c1=S
177	Cc1ccc(Cn2c(NC3CCN(CC#N)CC3)nc3ccccc32)o1
88 to 90	COc1ccc(C(=O)n2c(C)c(Cc3cc(=O)n(C4CCCCC4)[nH]3)c3cc(OC)ccc32)cc1

melting point [°C]	Structure (SMILES)
139 to 142	c1ccc(-c2nc3ncccc3[nH]2)nc1
182 to 184	Cc1cc2nccc(-c3cccnc3)n2n1
105 to 107	CCOC(=O)Cn1nnnc1S(=O)(=O)Cc1ccccc1
138	O=C(Nc1ccc2c(c1)OCO2)O[C@@H]1CN=C(c2ccccc2)O[C@H]1c1ccccc1 (racemic)
295	COc1ccc2ccc(NC(=O)c3cccc(O)c3)nc2n1
177 to 178	COC(=O)COc1ccc(C(=O)CN(C)C(=O)c2ccc(C(=N)N)cc2)cc1OCC(=O)OC
202	CN1C(=O)N(c2cc(Cl)nc(Cl)c2)C(=O)[C@]12CNC[C@H]2c1ccc(C#N)cc1 (relative stereo)
195	C#CCOc1cc(OCC=C)ccc1-c1nc2cnccc2[nH]1
118 to 121	O=c1cc2c(nn1-c1ccc(Cl)cc1)-c1cc(CO)sc1CCC2
160	CCCN(C)C(=O)COC1c2ccccc2C(=O)N1c1ccc2ccc(OC)nc2n1 (stereo not given)
90 to 101	N=C(N)NCCc1ccc(OCCC2Oc3ccccc3N(Cc3cccc(Cl)c3)C2=O)cc1 (stereo not given)
133 to 135	COc1cc(C(C)=O)ccc1OCCN1CCC(c2noc3cc(Cl)ccc23)CC1
173 to 174	O=C(NCc1ccccn1)Nc1cc(N2CC(c3ccccc3F)CC2=O)ccn1 (stereo not given)
83 to 85	O=C(O)Cc1ccc(OCCCN2CCC(c3cn(CC4CC4)c4ccccc34)CC2)cc1
190 to 192	COC(=O)C1=C(C)Nc2ccccc2NC1c1ccccc1[N+](=O)[O-] (stereo not given)
78	CC(C)(C)OC(=O)c1ccc(OCCNC(=O)C2Cc3ccccc3N2S(=O)(=O)c2ccc(-c3ccc(F)cc3Cl)cc2)cc1 (stereo not given)
54 to 55	CCOC(=O)C(C)(C)c1ccc(OCc2ccccc2)cc1
190	O=CNc1cccc(C(=O)Nc2ccc(-c3ccccc3)cc2)c1O
82 to 85	Cc1ccc2cccc(OCc3c(Cl)ccc(C4OCCO4)c3Cl)c2n1
122 to 123	FC(F)(F)c1ccc2sc(=Nc3ccccc3)sc2c1
88 to 91	CCOCCOc1ccc(CCNC(=O)c2cnc3ccccc3c2)cc1S(=O)(=O)NC(=S)NC
137 to 139	Cc1ccc(S(=O)(=O)OCCC(=C(c2ccccc2)c2ccccc2)c2ccccc2)cc1
104	OC(COc1cccc2c1SCCC2)CN1CCC(c2ccccc2)CC1 (stereo not given)
172 to 174	O=C(NCc1ccccn1)c1nc(-c2ccccc2)c(-c2ccc(=O)n(Cc3ccccc3)n2)s1
